Patent US20120270238A1, “Peptides That Bind the Alpha-Fetoprotein (AFP) Receptor and Uses Thereof” (priority 2009, published 2012)
No end group written: not given here. *: point of attachment. FITC = O=C1OC2(c3ccc(O)cc3Oc3cc(O)ccc32)c2ccc(NC(=S)*)cc21

Columns and labels:
[1] = system: MCF-7 cells (human breast cancer cell line); assay: Uptake of FITC labelled peptide into MCF-7 cells; assay type: cell-based; conditions: FITC fluorescence; qualitative
Excerpt: FIGS. 10A and B show the results of this experiment. […] This experiment provides evidence that the peptides according to the present invention provide for intracellular delivery of bioactive agents to the interior of cells expressing AFPr, particularly cancer cells.

[2] = system: cancer cell line that is known to have AFP receptors; assay: Binding of FITC labelled peptide to cancer cells; assay type: cell-based; conditions: FITC at the N terminal; fluorescence; qualitative
[3] = system: alpha-fetoprotein receptor present in MCF-7 cell extracts; assay: Competitive ELISA with biotin labeled AFP on MCF-7 cell extract; assay type: binding, human; conditions: for inhibition (competition with AFP-biotin): constant AFP-biotin 0.5 μg/ml, plate coated with MCF-7 extract; for competition with biotin labeled AFP for the AFP receptor: qualitative, biotin labeled AFP 0.5 ug/ml
Method: To see if the enzymatic digests were still biologically active, the enzymatic digests were used in a competitive based ELISA with whole AFP molecule labeled with biotin. The ability of the enzymatic digest dilutions to compete for the alpha-fetoprotein receptor present in MCF-7 cell extracts was determined using a constant 0.5 ug/ml of biotin labeled AFP. […] This fragment was run on a gradient tricine gel, transferred to a PVDF membrane and sent for N terminal sequencing. Results gave the amino acid (AA) sequence V-N-P-G . . . corresponding to AA 493 to 496 of Human AFP as published in Uniprot Data base (FIG. 2).
A plate can be coated with an extract of a cancer cell line known to have AFP receptors (for example, MCF-7). The plate is coated at 100 ug/ml total protein concentration and the peptide to be tested and AFP biotin is mixed with an initial peptide concentration of 250 μg/ml and subsequent half dilutions made. […] (FIG. 3). This assay was repeated with subsequent peptides synthesized in order to determine the smallest amino acid chain that would compete along with other peptides not in this region of the AFP molecule as well as from a different species.

[4] = target: alpha-fetoprotein receptor (AFP receptor) (human); assay: competition assay, plate coated with MCF-7 extract, AFP-biotin constant at 0.5 µg/ml

Molecule: FITC labeled Fragment 4: Fragment 4 synthesized with FITC at the N terminal ({FITC}-LQTMKQEFLIN)
- uptake into MCF-7 human breast cancer cells [1]: uptake
- binding to cancer cells [2]: demonstrated binding

Molecule: HKDLCQAQGVALQTMKQEFLIN [Fragment 3, amino acids 534-555 of human AFP]
- inhibition (competition with AFP-biotin) ([3]; peptide 7.8 μg/ml): 50%
- inhibition (competition with AFP-biotin) ([3]; peptide 250 μg/ml): 85%
- competition with biotin labeled AFP for the AFP receptor [3]: found to compete

Molecule: KQEFLIN [amino acids 549-555 of human AFP]
- competition with biotin labeled AFP for the AFP receptor [3]: found to compete

Molecule: HKDLCQAQGVALQTMKQEFLIN [Fragment 3, …]
- % inhibition at 7.8 µg/ml [4]: 50%
- % inhibition at 250 µg/ml [4]: 85%
